Reference: publication PMC7346217, “Insight of Polyphenol Oxidase Enzyme Inhibition and Total Polyphenol Recovery from Cocoa Beans” (Antioxidants, 2020)

Test system: T1, polyphenol oxidase (PPO) from cocoa beans
T1 construct: native; isoenzyme not identified
Experiment: spectrophotometric oxidation ([…] nm), Michaelis-Menten nonlinear regression
Assay type: biochemical, Theobroma cacao
Settings: crude extract of non-treated beans; McIlvaine buffer pH 6.5; 35 °C; substrate 5-200 mM

Structure (SMILES) | Km
Oc1cc(O)c2c(c1)O[C@H](c1ccc(O)c(O)c1)[C@@H](O)C2 [(+)-catechin] | 1450 ± 350 µM
Oc1cc(O)c2c(c1)O[C@H](c1ccc(O)c(O)c1)[C@H](O)C2 [(−)-epicatechin] | 1260 ± 370 µM
Oc1ccccc1O [catechol] | 610 ± 120 µM
